Laboratory results from patent US12319676B2, “Substituted amide compounds useful as farnesoid X receptor modulators” (BRISTOL-MYERS SQUIBB COMPANY, priority 2019, dated 2025).

Molecular target: T1, human FXR (Homo sapiens, UniProt Q96RI1)
T1 construct: expressed in transfected cells; host or cells: HEK293 cells stably carrying a 5xGal4 response element-luciferase reporter, transiently transfected with pcDNA3.1-Gal4-FXR
T1 sequence (Q96RI1 262-486 limits assumed): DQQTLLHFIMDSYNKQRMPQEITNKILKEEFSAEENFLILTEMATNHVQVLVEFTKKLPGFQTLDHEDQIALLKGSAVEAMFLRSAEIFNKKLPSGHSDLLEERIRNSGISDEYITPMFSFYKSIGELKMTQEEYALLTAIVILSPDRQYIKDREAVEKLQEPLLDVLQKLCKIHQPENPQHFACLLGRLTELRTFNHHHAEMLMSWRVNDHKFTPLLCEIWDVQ
Assay: transient human FXR/Gal4-luciferase reporter assay
Format: cell-based
Conditions: Gal4-hFXR fusion construct, luciferase reporter in HEK293 cells; overnight incubation; response as percentage of 8 μM GW-4064 control
Description: The exemplified compounds of the present invention were tested in the transient human FXR/Gal4-luciferase reporter assay, and assay results were reported in Table 1 and Examples 1 to 3 together with other analytical data. A Gal4-hFXR fusion construct reporter system was used as the primary assay to characterize compound activity. A construct including 5 copies of the Gal4 promoter response element upstream of a firefly luciferase reporter cDNA was stably expressed in HEK293 cells. This reporter cell line was maintained in Dulbecco's Modified Eagle's medium (DMEM; Gibco) supplemented with 1% penicillin-streptomycin (P/S) solution, 500 μg/mL Zeocin and 10% charcoal/dextran-treated fetal bovine serum (cs-FBS) at 37° C. in a humidified 5% CO2 atmosphere. Another plasmid was constructed in which the human cytomegalovirus promoter in the pcDNA3.1 vector directs the expression of the cDNA encoding a fusion protein comprised of the DNA binding domain from the Gal4 transcription factor fused to the ligand binding domain from human FXR. The day prior to transfection, the reporter cells in culture are detached from the plate with trypsin and plated into a T75 flask at a sufficient density to achieve approximately 90% confluence the next morning. The transfection reagents are prepared by separately diluting 25 μg of the pcDNA3.1-Gal4-FXR plasmid into 1.87 mL of Opti-MEM (Thermo-Fisher), and 40 μL of Lipofectamine 2000 (Thermo-Fisher) into 1.87 mL of Opti-MEM, and then adding the diluted DNA solution into the diluted Lipofectamine 2000 solution and incubating at room temperature for 15-20 minutes. The mixture is further diluted with 10 mL of a solution comprised of DMEM, 10% cs-FBS, and 1% P/S immediately prior to transferring to the cells. The maintenance culture media is aspirated from the cells and the final transfection mixture is added before the cells are incubated overnight at 37° C. in a humidified 5% CO2 atmosphere. This protocol can be scaled up, and the transiently transfected cells can be cryopreserved in an assay-ready format. For compound testing, 100 nL of the compounds (serial dilutions in DMSO) are dispensed with an Echo acoustic dispenser (Labcyte) into the wells of a Corning/Costar clear bottom 384-well white plate. The transfected cells are harvested, counted, and diluted such that 10-25,000 cells in 25 μL are plated into each well of the 384-well compound assay plate. The compound-treated cells are incubated overnight at 37° C. in a humidified 5% CO2 atmosphere. The next morning 25 μL of Steady-Glo (Promega) are added to each well of the plate, the mixture is incubated for 15 min. with shaking, and luminescence is measured on an Envision (Perkin Elmer) plate reader. Background counts from cells treated with DMSO alone are subtracted from all raw counts, and the corrected values are converted to a percentage of the control response attained with 8 μM GW-4064.

Row | SMILES | EC50 [nM]
1 | CC(F)(F)c1nc(C23CCC(CN(C(=O)C4CCC(F)(F)CC4)c4cccc(S(=O)(=O)NC5CC5)c4)(CC2)CC3)no1 [Example 20, N-(3-(N-cyclopropylsulfamoyl)phenyl)-N-((4-(5-(1,1-difluoroethyl)-1,2,4-oxadiazol-3-yl)bicyclo[2.2.2]octan-1-yl)methyl)-4,4-difluorocyclohexane-1-carboxamide] | 4000
2 | CNS(=O)(=O)c1cccc(N(CC23CCC(c4noc(C(C)(F)F)n4)(CC2)CC3)C(=O)C23CC(F)(C2)C3)c1 [Example 21, N-((4-(5-(1,1-difluoroethyl)-1,2,4-oxadiazol-3-yl)bicyclo[2.2.2]octan-1-yl)methyl)-3-fluoro-N-(3-(N-methylsulfamoyl)phenyl)bicyclo[1.1.1]pentane-1-carboxamide] | 4000
3 | CNS(=O)(=O)c1cccc(N(CC23CCC(c4noc(C(C)(F)F)n4)(CC2)CC3)C(=O)[C@H]2C[C@](O)(C(F)(F)F)C2)c1 [Example 22, (1S,3S)-N-((4-(5-(1,1-difluoroethyl)-1,2,4-oxadiazol-3-yl)bicyclo[2.2.2]octan-1-yl)methyl)-3-hydroxy-N-(3-(N-methylsulfamoyl)phenyl)-3-(trifluoromethyl)cyclobutane-1-carboxamide] | 4000
4 | CNS(=O)(=O)c1cccc(N(CC23CCC(c4noc(C(C)(F)F)n4)(CC2)CC3)C(=O)C2CCC(F)(F)CC2)c1 [Example 23, N-((4-(5-(1,1-difluoroethyl)-1,2,4-oxadiazol-3-yl)bicyclo[2.2.2]octan-1-yl)methyl)-4,4-difluoro-N-(3-(N-methylsulfamoyl)phenyl)cyclohexane-1-carboxamide] | 4000
5 | CC(F)(F)c1nc(C23CCC(CN(C(=O)C4CCC(F)(F)CC4)c4cccc(P(C)(C)=O)c4)(CC2)CC3)no1 [Example 24, N-((4-(5-(1,1-difluoroethyl)-1,2,4-oxadiazol-3-yl)bicyclo[2.2.2]octan-1-yl)methyl)-N-(3-(dimethylphosphoryl)phenyl)-4,4-difluorocyclohexane-1-carboxamide] | 4000
6 | CC(F)(F)c1nc(C23CCC(CN(C(=O)C45CC(F)(C4)C5)c4cccc(P(C)(C)=O)c4)(CC2)CC3)no1 [Example 25, N-((4-(5-(1,1-difluoroethyl)-1,2,4-oxadiazol-3-yl)bicyclo[2.2.2]octan-1-yl)methyl)-N-(3-(dimethylphosphoryl)phenyl)-3-fluorobicyclo[1.1.1]pentane-1-carboxamide] | 4000
7 | CC(F)(F)c1nc(C23CCC(CN(c4cccc(P(C)(C)=O)c4)C(=O)[C@H]4C[C@](O)(C(F)(F)F)C4)(CC2)CC3)no1 [Example 26, (1S,3S)-N-((4-(5-(1,1-difluoroethyl)-1,2,4-oxadiazol-3-yl)bicyclo[2.2.2]octan-1-yl)methyl)-N-(3-(dimethylphosphoryl)phenyl)-3-hydroxy-3-(trifluoromethyl)cyclobutane-1-carboxamide] | 4000
8 | COC(=O)c1cccc(N(CC23CCC(c4noc(C(C)(F)F)n4)(CC2)CC3)C(=O)C23CC(F)(C2)C3)c1 [Example 27, Methyl 3-(N-((4-(5-(1,1-difluoroethyl)-1,2,4-oxadiazol-3-yl)bicyclo[2.2.2]octan-1-yl)methyl)-3-fluorobicyclo[1.1.1]pentane-1-carboxamido)benzoate] | 72
9 | CCNC(=O)c1cccc(N(CC23CCC(c4noc(C(C)(F)F)n4)(CC2)CC3)C(=O)C23CC(F)(C2)C3)c1 [Example 28, N-((4-(5-(1,1-difluoroethyl)-1,2,4-oxadiazol-3-yl)bicyclo[2.2.2]octan-1-yl)methyl)-N-(3-(ethylcarbamoyl)phenyl)-3-fluorobicyclo[1.1.1]pentane-1-carboxamide] | 210
10 | CC(F)(F)c1nc(C23CCC(CN(C(=O)C45CC(F)(C4)C5)c4cccc(C(N)=O)c4)(CC2)CC3)no1 [Example 29, N-(3-carbamoylphenyl)-N-((4-(5-(1,1-difluoroethyl)-1,2,4-oxadiazol-3-yl)bicyclo[2.2.2]octan-1-yl)methyl)-3-fluorobicyclo[1.1.1]pentane-1-carboxamide] | 902
11 | CC(F)(F)c1nc(C23CCC(CN(C(=O)N[C@H]4CC[C@](C)(O)CC4)c4cccc(Br)c4)(CC2)CC3)no1 [Example 30, 1-(3-bromophenyl)-1-((4-(5-(1,1-difluoroethyl)-1,2,4-oxadiazol-3-yl)bicyclo[2.2.2]octan-1-yl)methyl)-3-((1R,4R)-4-hydroxy-4-methylcyclohexyl)urea] | 150

Results, then the compound that gave them:

Row | EC50 [nM] | SMILES
12 | 62 | CC(C)(C)OC(=O)Nc1cccc(N(CC23CCC(c4noc(C(C)(F)F)n4)(CC2)CC3)C(=O)C23CC(F)(C2)C3)c1 [Example 32, Tert-butyl (3-(N-((4-(5-(1,1-difluoroethyl)-1,2,4-oxadiazol-3-yl)bicyclo[2.2.2]octan-1-yl)methyl)-3-fluorobicyclo[1.1.1]pentane-1-carboxamido)phenyl)carbamate]
13 | 13 | CC(F)(F)c1nc(C23CCC(CN(C(=O)C45CC(F)(C4)C5)c4cccc(Br)c4)(CC2)CC3)no1 [Example 33, N-(3-bromophenyl)-N-((4-(5-(1,1-difluoroethyl)-1,2,4-oxadiazol-3-yl)bicyclo[2.2.2]octan-1-yl)methyl)-3-fluorobicyclo[1.1.1]pentane-1-carboxamide]
14 | 20 | O=C(N(CC12CCC(c3noc(C4(F)CC4)n3)(CC1)CC2)c1cccc(Br)c1)C12CC(F)(C1)C2 [Example 34, N-(3-bromophenyl)-3-fluoro-N-((4-(5-(1-fluorocyclopropyl)-1,2,4-oxadiazol-3-yl)bicyclo[2.2.2]octan-1-yl)methyl)bicyclo[1.1.1]pentane-1-carboxamide]
15 | 42 | O=C(N(CC12CCC(c3noc(C(F)(F)F)n3)(CC1)CC2)c1cccc(Br)c1)C12CC(F)(C1)C2 [Example 35, N-(3-bromophenyl)-3-fluoro-N-((4-(5-(trifluoromethyl)-1,2,4-oxadiazol-3-yl)bicyclo[2.2.2]octan-1-yl)methyl)bicyclo[1.1.1]pentane-1-carboxamide]
16 | 135 | CC(C)(C)c1noc(C23CCC(CN(c4cccc(Br)c4)C(=O)[C@H]4C[C@](O)(C(F)(F)F)C4)(CC2)CC3)n1 [Example 36, (1S,3S)—N-(3-bromophenyl)-N-((4-(3-(tert-butyl)-1,2,4-oxadiazol-5-yl)bicyclo[2.2.2]octan-1-yl)methyl)-3-hydroxy-3-(trifluoromethyl)cyclobutane-1-carboxamide]
17 | 1080 | CC(C)(C)c1noc(C23CCC(CN(C(=O)C45CC(F)(C4)C5)c4ccc(Cl)c(Br)c4)(CC2)CC3)n1 [Example 37, N-(3-bromo-4-chlorophenyl)-N-((4-(3-(tert-butyl)-1,2,4-oxadiazol-5-yl)bicyclo[2.2.2]octan-1-yl)methyl)-3-fluorobicyclo[1.1.1]pentane-1-carboxamide]
18 | 142 | CC(C)(C)c1noc(C23CCC(CN(C(=O)C45CC(F)(C4)C5)c4cccc(C#N)c4)(CC2)CC3)n1 [Example 38, N-((4-(3-(tert-butyl)-1,2,4-oxadiazol-5-yl)bicyclo[2.2.2]octan-1-yl)methyl)-N-(3-cyanophenyl)-3-fluorobicyclo[1.1.1]pentane-1-carboxamide]
19 | 568 | CC(C)(C)c1noc(C23CCC(CN(c4cccc(C#N)c4)C(=O)[C@H]4C[C@](O)(C(F)(F)F)C4)(CC2)CC3)n1 [Example 39, (1S,3S)-N-((4-(3-(tert-butyl)-1,2,4-oxadiazol-5-yl)bicyclo[2.2.2]octan-1-yl)methyl)-N-(3-cyanophenyl)-3-hydroxy-3-(trifluoromethyl)cyclobutane-1-carboxamide]
20 | 1260 | CC(C)(C)c1noc(C23CCC(CN(c4cccc(C#N)c4)C(=O)[C@H]4C[C@@](C)(O)C4)(CC2)CC3)n1 [Example 40, (1S,3S)-N-((4-(3-(tert-butyl)-1,2,4-oxadiazol-5-yl)bicyclo[2.2.2]octan-1-yl)methyl)-N-(3-cyanophenyl)-3-hydroxy-3-methylcyclobutane-1-carboxamide]
